Data published in ChEMBL document CHEMBL4602617, “Discovery and optimization of heteroaryl piperazines as potent and selective PI3Kδ inhibitors” (Bioorg Med Chem Lett, 2020).

Experiments:
[1] = biological target: C-X-C chemokine receptor type 4 (Homo sapiens) (UniProt P61073); test: Displacement of [125I]SDF-1alpha from recombinant full length human recombinant CXCR4 expressed in Chem-1 cells at 10 uM measured after 90 mins by radiometric scintillation analysis relative to control; assay type: cell-based
[2] = biological target: MAP/microtubule affinity-regulating kinase 3 (Homo sapiens, UniProt P27448); test: Inhibition of recombinant full length human GST-tagged MARK3 expressed in baculovirus expression system using serine/threonine-25 peptide as substrate incubated for 60 mins in presence of ATP by Z'-LYTE assay
[3] = biological target: Receptor-type tyrosine-protein kinase FLT3 (Homo sapiens, UniProt P36888, D835Y); test: Inhibition of recombinant human His-tagged FLT3 D835Y mutant cytoplasmic domain expressed in baculovirus expression system after 1 using tyrosine 2 as substrate after 1 hr in presence of ATP by ZYLTE assay
[4] = biological target: Cyclin-dependent kinase 1/cyclin B1 (Homo sapiens, UniProt P06493); test: Inhibition of recombinant full length human His-tagged CDK1/CyclinB expressed in baculovirus expression system using serine/threonine-18 peptide as substrate incubated for 60 mins in presence of ATP by Z'-LYTE assay
[5] = biological target: Serine/threonine-protein kinase pim-1 (Homo sapiens, UniProt P11309); test: Inhibition of recombinant full length human His-tagged PIM1 expressed in baculovirus expression system using serine/threonine-7 peptide as substrate incubated for 60 mins in presence of ATP by Z'-LYTE assay
[6] = biological target: Aurora kinase B (Homo sapiens, UniProt Q96GD4); test: Inhibition of recombinant full length His-tagged human AURKB expressed in baculovirus expression system using Ser/Thr-01 peptide as substrate incubated for 60 mins in presence of ATP by Z'-LYTE assay
[7] = biological target: NUAK family SNF1-like kinase 1 (Homo sapiens, UniProt O60285); test: Inhibition of recombinant full length His-tagged human NUAK1 expressed in baculovirus expression system using CHKtide as substrate after 1 hr in presence of ATP by Adapta assay
[8] = biological target: Histamine H2 receptor (Homo sapiens) (UniProt P25021); test: Displacement of [125I]aminopotentidine from full length human recombinant histamine H2 receptor expressed in CHO-K1 cells at 10 uM measured after 120 mins by radiometric scintillation analysis relative to control; assay type: cell-based
Histamine H2 receptor (Homo sapiens), sequence (P25021 whole entry): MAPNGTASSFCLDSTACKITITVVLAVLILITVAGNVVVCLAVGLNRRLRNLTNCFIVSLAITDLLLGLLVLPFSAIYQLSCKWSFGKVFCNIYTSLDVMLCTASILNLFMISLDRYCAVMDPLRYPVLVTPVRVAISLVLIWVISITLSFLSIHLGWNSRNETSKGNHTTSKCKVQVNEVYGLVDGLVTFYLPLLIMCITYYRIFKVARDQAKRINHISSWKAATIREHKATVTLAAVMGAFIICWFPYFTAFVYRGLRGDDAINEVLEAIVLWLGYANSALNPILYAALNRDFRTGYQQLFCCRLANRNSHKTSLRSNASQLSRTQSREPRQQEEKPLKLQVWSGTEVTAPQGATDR

[9] = biological target: Phosphatidylinositol 3-kinase catalytic subunit type 3 (Homo sapiens, UniProt Q8NEB9); test: Inhibition of recombinant full length human GST-tagged PIK3C3 expressed in baculovirus expression system using PI lipid as substrate incubated for 60 mins in presence of ATP by Adapta assay
[10] = biological target: Serine/threonine-protein kinase TBK1 (Homo sapiens, UniProt Q9UHD2); test: Inhibition of recombinant full length human GST-tagged TBK1 expressed in insect expression system using serine/threonine-5 peptide as substrate incubated for 60 mins in presence of ATP by Z'-LYTE assay
Serine/threonine-protein kinase TBK1, sequence (Q9UHD2 whole entry): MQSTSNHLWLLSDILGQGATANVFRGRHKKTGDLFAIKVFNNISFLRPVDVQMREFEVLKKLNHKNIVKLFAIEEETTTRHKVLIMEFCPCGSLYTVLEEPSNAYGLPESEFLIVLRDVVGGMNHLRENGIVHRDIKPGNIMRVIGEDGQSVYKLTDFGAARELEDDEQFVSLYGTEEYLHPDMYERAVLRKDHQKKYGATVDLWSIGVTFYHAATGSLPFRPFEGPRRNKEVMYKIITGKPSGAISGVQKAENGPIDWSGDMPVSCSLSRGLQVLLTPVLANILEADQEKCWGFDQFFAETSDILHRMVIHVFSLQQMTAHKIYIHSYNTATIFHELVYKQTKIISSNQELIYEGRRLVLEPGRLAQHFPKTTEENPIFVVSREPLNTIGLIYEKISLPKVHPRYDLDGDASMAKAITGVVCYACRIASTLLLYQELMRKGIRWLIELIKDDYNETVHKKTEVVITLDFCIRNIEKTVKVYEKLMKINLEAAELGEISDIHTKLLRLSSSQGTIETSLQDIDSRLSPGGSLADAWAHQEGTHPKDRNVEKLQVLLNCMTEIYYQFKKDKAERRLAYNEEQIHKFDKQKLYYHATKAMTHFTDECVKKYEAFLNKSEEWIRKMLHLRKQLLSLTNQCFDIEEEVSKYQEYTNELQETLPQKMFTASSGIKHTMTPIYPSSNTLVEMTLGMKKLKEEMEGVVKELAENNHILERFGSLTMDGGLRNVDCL

[11] = biological target: Mitogen-activated protein kinase 14 (Homo sapiens, UniProt Q16539); test: Inhibition of recombinant full length human p38alpha expressed in Escherichia coli at 10 uM using MBP as substrate after 30 mins by radiometric scintillation analysis relative to control
[12] = biological target: Serine/threonine-protein kinase N1 (Homo sapiens, UniProt Q16512); test: Inhibition of recombinant full length GST-tagged human PKN1 expressed in baculovirus expression system using Ser/Thr 07 as substrate in presence of ATP after 1 hr by Z'-LYTE assay
Serine/threonine-protein kinase N1, sequence (Q16512 whole entry): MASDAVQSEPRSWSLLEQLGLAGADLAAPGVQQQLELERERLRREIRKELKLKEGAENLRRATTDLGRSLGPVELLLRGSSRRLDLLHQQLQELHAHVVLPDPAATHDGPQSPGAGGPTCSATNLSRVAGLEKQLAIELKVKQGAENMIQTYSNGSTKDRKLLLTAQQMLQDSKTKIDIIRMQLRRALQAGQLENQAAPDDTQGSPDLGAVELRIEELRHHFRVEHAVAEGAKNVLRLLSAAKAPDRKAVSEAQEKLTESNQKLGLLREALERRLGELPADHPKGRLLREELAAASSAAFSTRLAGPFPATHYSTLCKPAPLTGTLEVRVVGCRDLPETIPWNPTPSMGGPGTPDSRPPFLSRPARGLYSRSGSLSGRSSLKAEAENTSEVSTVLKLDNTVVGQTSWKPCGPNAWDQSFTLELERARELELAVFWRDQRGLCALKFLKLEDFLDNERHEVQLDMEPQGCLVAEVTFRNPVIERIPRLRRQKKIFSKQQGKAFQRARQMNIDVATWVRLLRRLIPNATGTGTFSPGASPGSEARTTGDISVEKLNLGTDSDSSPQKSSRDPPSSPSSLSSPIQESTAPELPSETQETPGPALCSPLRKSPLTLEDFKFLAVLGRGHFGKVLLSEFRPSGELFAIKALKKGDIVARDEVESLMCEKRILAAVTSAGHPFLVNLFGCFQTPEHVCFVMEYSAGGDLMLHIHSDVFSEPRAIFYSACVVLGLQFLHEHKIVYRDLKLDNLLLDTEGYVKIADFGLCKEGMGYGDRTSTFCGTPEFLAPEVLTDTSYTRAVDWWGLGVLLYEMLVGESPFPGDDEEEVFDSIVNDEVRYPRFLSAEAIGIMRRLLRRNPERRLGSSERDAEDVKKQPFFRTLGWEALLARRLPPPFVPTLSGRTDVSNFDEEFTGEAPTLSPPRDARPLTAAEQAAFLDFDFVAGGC

[13] = biological target: 5-hydroxytryptamine receptor 2B (Homo sapiens) (UniProt P41595); test: Displacement of [3H]lysergic acid diethylamide from full length human recombinant 5HT2B receptor expressed in CHOK-1 cells at 10 uM measured after 60 mins by radiometric scintillation analysis relative to control; assay type: cell-based
5-hydroxytryptamine receptor 2B (Homo sapiens), sequence (P41595 whole entry): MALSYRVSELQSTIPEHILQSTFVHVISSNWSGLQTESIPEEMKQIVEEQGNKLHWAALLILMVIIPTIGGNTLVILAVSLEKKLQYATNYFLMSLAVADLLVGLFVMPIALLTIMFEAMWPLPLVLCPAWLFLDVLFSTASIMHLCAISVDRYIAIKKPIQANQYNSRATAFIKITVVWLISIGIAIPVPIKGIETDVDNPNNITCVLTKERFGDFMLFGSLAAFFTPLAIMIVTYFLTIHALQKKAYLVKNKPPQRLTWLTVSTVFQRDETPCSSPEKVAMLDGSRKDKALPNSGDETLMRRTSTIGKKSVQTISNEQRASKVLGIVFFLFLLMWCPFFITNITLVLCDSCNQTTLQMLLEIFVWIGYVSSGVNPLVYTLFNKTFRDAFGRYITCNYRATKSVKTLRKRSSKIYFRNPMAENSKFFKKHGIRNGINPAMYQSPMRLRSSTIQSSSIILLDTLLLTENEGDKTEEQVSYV

[14] = Oral bioavailability in rat at 0.5 mg/kg; assay type: ADME, organism-based; details: in vivo
[15] = biological target: Mast/stem cell growth factor receptor Kit (Homo sapiens, UniProt P10721); test: Inhibition of human recombinant His-tagged KIT cytoplasmic domain expressed in baculovirus expression system using Tyr6 peptide as measured after 1 hr in presence of ATP by Z'-LYTE assay
[16] = Clearance in rat plasma at 0.5 mg/kg, iv or 1 mg/kg, po; assay type: ADME, organism-based
[17] = biological target: Protein kinase C eta type (Homo sapiens, UniProt P24723); test: Inhibition of recombinant full length human His-tagged PRKCH expressed in baculovirus expression system using serine/threonine-7 peptide as substrate incubated for 60 mins in presence of ATP by Z'-LYTE assay
[18] = biological target: Eukaryotic elongation factor 2 kinase (Homo sapiens, UniProt O00418); test: Inhibition of recombinant human full length GST-tagged EEF2K expressed in Escherichia coli expression system using serine/threonine-24 peptide as substrate incubated for 60 mins in presence of ATP by Z'-LYTE assay
[19] = biological target: Neurotensin receptor type 1 (Homo sapiens) (UniProt P30989); test: Displacement of [125I]neurotensin from NT1 receptor in human HEK293 EBNA cell membranes at 10 uM measured after 45 mins by radiometric scintillation analysis relative to control
[20] = biological target: Epidermal growth factor receptor (Homo sapiens, UniProt P00533); test: Inhibition of recombinant human GST-tagged EGFR expressed in baculovirus expression system using tyr-04 peptide as substrate incubated for 60 mins in presence of ATP by Z'-LYTE assay
Epidermal growth factor receptor (Homo sapiens, UniProt P00533), sequence (P00533 whole entry): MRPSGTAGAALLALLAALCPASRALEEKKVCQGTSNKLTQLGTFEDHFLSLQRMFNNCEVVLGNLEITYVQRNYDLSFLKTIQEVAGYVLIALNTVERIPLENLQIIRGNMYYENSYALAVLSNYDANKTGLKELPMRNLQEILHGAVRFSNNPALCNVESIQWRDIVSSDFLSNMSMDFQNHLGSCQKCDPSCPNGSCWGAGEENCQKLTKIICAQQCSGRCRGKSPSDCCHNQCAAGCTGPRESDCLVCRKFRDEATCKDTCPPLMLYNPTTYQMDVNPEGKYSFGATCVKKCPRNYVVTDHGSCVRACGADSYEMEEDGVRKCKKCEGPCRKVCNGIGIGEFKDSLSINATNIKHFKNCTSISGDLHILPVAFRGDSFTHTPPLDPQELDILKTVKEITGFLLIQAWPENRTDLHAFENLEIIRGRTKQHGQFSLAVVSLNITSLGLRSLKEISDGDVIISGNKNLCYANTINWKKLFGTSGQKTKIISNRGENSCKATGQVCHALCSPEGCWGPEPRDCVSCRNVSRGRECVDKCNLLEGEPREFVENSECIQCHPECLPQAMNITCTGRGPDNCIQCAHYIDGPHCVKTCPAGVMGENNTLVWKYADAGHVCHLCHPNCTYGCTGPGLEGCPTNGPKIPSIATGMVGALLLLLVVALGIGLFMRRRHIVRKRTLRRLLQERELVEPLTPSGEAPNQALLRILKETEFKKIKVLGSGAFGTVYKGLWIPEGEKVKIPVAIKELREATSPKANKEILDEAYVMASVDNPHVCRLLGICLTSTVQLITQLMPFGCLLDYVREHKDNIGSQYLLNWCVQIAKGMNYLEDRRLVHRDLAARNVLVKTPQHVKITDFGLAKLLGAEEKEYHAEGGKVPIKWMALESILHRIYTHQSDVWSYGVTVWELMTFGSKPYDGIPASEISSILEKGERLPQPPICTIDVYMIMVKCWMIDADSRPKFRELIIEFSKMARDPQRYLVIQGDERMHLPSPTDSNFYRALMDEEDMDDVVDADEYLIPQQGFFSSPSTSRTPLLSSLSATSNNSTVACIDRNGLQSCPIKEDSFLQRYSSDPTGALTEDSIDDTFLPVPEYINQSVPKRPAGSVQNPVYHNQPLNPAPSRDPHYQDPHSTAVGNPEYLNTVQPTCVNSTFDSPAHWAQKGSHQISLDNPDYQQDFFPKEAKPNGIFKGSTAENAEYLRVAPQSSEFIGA

[21] = biological target: Somatostatin receptor type 2 (Homo sapiens) (UniProt P30874); test: Displacement of [125I]Tyr11-Somatostatin 14 from recombinant full length human SST2 expressed in CHO-K1 cells at 10 uM after 4 hrs by radiometric scintillation analysis relative to control; assay type: cell-based
Somatostatin receptor type 2 (Homo sapiens), sequence (P30874 whole entry): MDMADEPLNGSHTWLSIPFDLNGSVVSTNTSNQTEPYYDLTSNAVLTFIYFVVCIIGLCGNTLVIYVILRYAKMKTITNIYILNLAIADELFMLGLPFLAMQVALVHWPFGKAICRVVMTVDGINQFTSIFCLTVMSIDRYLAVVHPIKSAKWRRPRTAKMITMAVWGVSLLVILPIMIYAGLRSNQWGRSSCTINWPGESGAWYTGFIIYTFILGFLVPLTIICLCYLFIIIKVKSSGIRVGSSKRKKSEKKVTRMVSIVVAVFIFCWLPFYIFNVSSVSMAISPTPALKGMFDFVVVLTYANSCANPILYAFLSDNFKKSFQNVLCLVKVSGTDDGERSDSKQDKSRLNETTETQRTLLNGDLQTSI

[22] = biological target: Testis-specific serine/threonine-protein kinase 2 (Homo sapiens, UniProt Q96PF2); test: Inhibition of recombinant full length human His-tagged STK22B expressed in baculovirus expression system using serine/threonine-04 peptide as substrate incubated for 60 mins in presence of ATP by Z'-LYTE assay
Testis-specific serine/threonine-protein kinase 2, sequence (Q96PF2 whole entry, the tested form may be a part): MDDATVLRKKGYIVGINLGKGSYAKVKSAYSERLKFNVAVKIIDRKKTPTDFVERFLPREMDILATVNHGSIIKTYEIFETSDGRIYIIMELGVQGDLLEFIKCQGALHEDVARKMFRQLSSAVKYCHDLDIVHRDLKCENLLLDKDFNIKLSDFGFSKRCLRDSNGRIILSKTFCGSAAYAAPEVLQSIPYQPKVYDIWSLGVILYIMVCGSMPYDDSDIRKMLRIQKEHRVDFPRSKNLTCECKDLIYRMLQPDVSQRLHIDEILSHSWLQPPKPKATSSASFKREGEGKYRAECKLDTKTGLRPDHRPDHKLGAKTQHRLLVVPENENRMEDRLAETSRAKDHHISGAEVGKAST

[23] = biological target: Platelet-derived growth factor receptor beta (Homo sapiens, UniProt P09619); test: Inhibition of recombinant human His-tagged PDGFRbeta cytoplasmic domain expressed in baculovirus expression system using tyrosine-4 peptide as substrate incubated for 60 mins in presence of ATP by Z'-LYTE assay
[24] = biological target: Mast/stem cell growth factor receptor Kit (Homo sapiens, UniProt P10721, T670I); test: Inhibition of recombinant human His-tagged KIT (544 to 976 residues) harboring T670I mutant expressed in baculovirus expression system using tyrosine-6 peptide as substrate incubated for 60 mins in presence of ATP by Z'-LYTE assay
[25] = biological target: Epidermal growth factor receptor (Homo sapiens, UniProt P00533, L861Q); test: Inhibition of human recombinant GST-tagged EGFR L861Q mutant cytoplasmic domain expressed in baculovirus expression system using tyrosine 4 peptide as substrate after 60 mins in presence of ATP FRET based Z'-LYTE assay
[26] = biological target: Tyrosine-protein kinase FRK (Homo sapiens, UniProt P42685); test: Inhibition of recombinant full length GST-tagged human FRK expressed in baculovirus expression system using tyrosine 1 as substrate after 1 hr in presence of ATP by ZYLTE assay
Tyrosine-protein kinase FRK, sequence (P42685 whole entry): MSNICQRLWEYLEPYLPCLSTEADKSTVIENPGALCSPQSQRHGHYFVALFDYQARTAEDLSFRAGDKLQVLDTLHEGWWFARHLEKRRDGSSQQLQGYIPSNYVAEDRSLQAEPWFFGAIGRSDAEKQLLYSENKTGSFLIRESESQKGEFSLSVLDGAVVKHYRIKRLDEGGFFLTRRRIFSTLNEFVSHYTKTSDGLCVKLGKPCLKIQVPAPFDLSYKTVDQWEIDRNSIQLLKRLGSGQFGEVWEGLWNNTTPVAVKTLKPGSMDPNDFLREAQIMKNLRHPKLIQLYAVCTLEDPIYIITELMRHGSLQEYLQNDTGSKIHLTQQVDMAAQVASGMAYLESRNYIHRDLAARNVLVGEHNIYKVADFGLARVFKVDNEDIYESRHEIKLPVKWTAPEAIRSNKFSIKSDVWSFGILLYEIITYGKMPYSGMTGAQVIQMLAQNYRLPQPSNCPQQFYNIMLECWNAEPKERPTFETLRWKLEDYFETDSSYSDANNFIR

`C[C@@H]1C[C@H]1C(=O)N1CCN(c2cnc(C#N)c(-c3cnn(C)c3)n2)C[C@H]1C` gave an inhibition [1] of 5%, an IC50 [2] greater than 100 µM and an IC50 [3] greater than 100 µM. The IC50 [4] was greater than 100 µM, the IC50 [5] was greater than 100 µM and the IC50 [6] was greater than 100 µM. It also gave an IC50 [7] greater than 100 µM, an inhibition [8] of 6% and an IC50 [9] greater than 100 µM. For the same compound, the IC50 [10] was greater than 100 µM, the inhibition [11] was 19% and the IC50 [12] was greater than 100 µM. It also gave an inhibition [13] of 19%, a bioavailability [14] of 79% and an IC50 [15] greater than 100 µM. It also gave a clearance [16] of 1.71 L/h/kg, an IC50 [17] greater than 100 µM and an IC50 [18] greater than 100 µM. For the same compound, the inhibition [19] was 1%, the IC50 [20] was greater than 100 µM and the inhibition [21] was -5%. It also gave an IC50 [22] greater than 100 µM, an IC50 [23] greater than 100 µM and an IC50 [24] greater than 100 µM. It also gave an IC50 [25] greater than 100 µM and an IC50 [26] greater than 100 µM.
